# Test results as given in article PMC5988692, “AZ304, a novel dual BRAF inhibitor, exerts anti-tumour effects in colorectal cancer independently of BRAF genetic status” (British Journal of Cancer, 2018).
# Key:
# [1] = test system: RKO, HT-29, DiFi and Caco-2 cells; experiment: EdU incorporation assay; format: cell-based, human; conditions: four CRC cell lines, 24 h
# Experimental: Selected colorectal cancer cells were seeded into 96-well plates (2000–5000 cells per well). After incubation for 24 h, the cells were pretreated with DMSO or AZ304 for 24 h. Then 50 μM of 5-ethynyl-2′-deoxyuridine (EdU, Ribobio, Guangzhou, China) was added to each well and the cells were incubated at 37 °C for 2 h before being fixed with 4% formaldehyde for 30 min and incubated with 2 mg/ml glycine for 5 min. After being washed with PBS for five times, the cells were reacted with 100 μL of 1 × Apollo reaction cocktail for 30 min. Afterwards, the 1 × Hoechst 33342 (5 μg/mL) was used to stain the nuclei.
# Two V600E mutant BRAF cell lines (RKO, HT-29) and two wild-type BRAF cell lines (DiFi, Caco-2) were treated with DMSO or increasing concentrations of AZ304 (0, 0.1, 1, 10, 100 μM), for 48 h (a) and 72 h (b). Viable cells were determined by MTT assay. c EdU incorporation assay. Four cells lines from (a) were treated with DMSO or indicated AZ304 for 24 h, followed by incubation with EdU and Hoechst in sequence. […] Expression levels of phosphorylation ERK were analysed by Western blot. e BRAF mutant cell line RKO, and BRAF wild type cell line Caco-2 were treated with DMSO or 2 uM AZ304 for the indicated times. Expression levels of phosphorylation ERK were analysed by Western blot. […] Cell viability was determined by MTT assay
# HCT116 = experiment: Cell proliferation assay (cell panel, MTS); format: cell-based; conditions: Homo sapiens, HCT-116, 72 h; HCT116, Colon, BRAF WT, KRAS MT, 3 days
# Experimental: (§1) The proliferation assays against a cell panel were performed as described in ref.[18] Briefly, the cells were treated with DMSO or multiple concentrations of AZ304 for 3 days. The cell growth was determined using the CellTiter 96 Aqueous One Cell Proliferation Assay (Promega, Madison, WI). […] The assays were done in triplicate across different plates.
# (§2) Anti-proliferative activity of AZ304 against a panel of cell lines with different BRAF and RAS genetic status. […] Cell growth was determined by MTS assay.
# HCT-15 = experiment: Cell proliferation assay (cell panel, MTS); format: cell-based; conditions: Homo sapiens, 72 h; HCT-15, Colon, BRAF WT, KRAS MT, 3 days
# Experimental: as §1, §2
# MC-F7/mdr+ = experiment: Cell proliferation assay (cell panel, MTS); format: cell-based; conditions: Homo sapiens, MCF7, 72 h, Breast, BRAF WT, RAS WT, 3 days
# Experimental: as §1, §2
# SK-BR-3 = experiment: Cell proliferation assay (cell panel, MTS); format: cell-based; conditions: Homo sapiens, 72 h; SK-BR-3, Breast, BRAF WT, RAS WT, 3 days
# Experimental: as §1, §2
# RPMI-8226 = experiment: Cell proliferation assay (cell panel, MTS); format: cell-based; conditions: Homo sapiens, RPMI-8226, 72 h; BRAF WT, KRAS MT, 3 days
# Experimental: as §1, §2
# NCI-H1755 = experiment: Cell proliferation assay (cell panel, MTS); format: cell-based; conditions: Homo sapiens, 72 h; NCI-H1755, Lung, BRAF A468, RAS WT, 3 days
# Experimental: as §1, §2
# U937 = experiment: Cell proliferation assay (cell panel, MTS); format: cell-based; conditions: Homo sapiens, U-937, 72 h; U937, Lymphoma, BRAF WT, RAS WT, 3 days
# Experimental: as §1, §2
# CHL-1 = experiment: Cell proliferation assay (cell panel, MTS); format: cell-based; conditions: Homo sapiens, 72 h; CHL-1, Melanoma, BRAF WT, RAS WT, 3 days
# Experimental: as §1, §2
# MDA-MB-468 = experiment: Cell proliferation assay (cell panel, MTS); format: cell-based; conditions: Homo sapiens, 72 h; MDA-MB-468, Breast, BRAF WT, RAS WT, 3 days
# Experimental: as §1, §2
# [2] = test system: RKO, HT-29, DiFi and Caco-2 cells; experiment: Western blot analysis in selected CRC cell lines; format: cell-based, human; conditions: four CRC cell lines
# Experimental: For western-blotting in A375, A549 and MC-F7 cell lines, the detailed method was described in ref.[18] […] For western-blot in selected CRC cell lines, the cells were collected after treatment for indicated time and washed twice with cold PBS. Then cells were lysed in 1% Triton lysis buffer (50 mmol/L Tris-HCl, pH 7.4, 10 mmol/L EDTA, 100 mmol/L NaF, 150 mmol/L NaCl, 1% Triton X-100, 1 mmol/L PMSF 1 mmol/L Na3VO4 and 2 μg/mL aprotinin). After sonication and centrifugation, samples were quantified with the Lowry method. Next, all the protein samples were boiled at 95 °C for 5 min with 3× sampling buffer. After that, all the lysate samples were resolved by SDS polyacrylamide gel electrophoresis (SDS-PAGE) and followed by western blotting which means electronically transferred to nitrocellulose membranes. After blocking with 5% skim milk in TBST buffer (10 mM Tris-HCl pH 7.4, 150 mM NaCl, 0.1% Tween 20) at room temperature for 1 h, the blots were incubated with indicated antibodies shaking for 2 h, then overnight at 4 °C. Then the blots were washed four times with TBST buffer, and then incubated with secondary antibodies for 30 min at room temperature. After washing for another four times, the protein bands were detected with enhanced chemiluminescence reagent (SuperSignal Western Pico Chemiluminescent Substrate; Pierce, Rockford, IL, USA) and visualised with the Electrophoresis Gel Imaging Analysis System (DNR Bio-Imaging Systems, Jerusalem, Israel).
# Two V600E mutant BRAF cell lines (RKO, HT-29) and two wild-type BRAF cell lines (DiFi, Caco-2) were treated with DMSO or increasing concentrations of AZ304 (0, 0.1, 1, 10, 100 μM), for 48 h (a) and 72 h (b). Viable cells were determined by MTT assay. c EdU incorporation assay. Four cells lines from (a) were treated with DMSO or indicated AZ304 for 24 h, followed by incubation with EdU and Hoechst in sequence. Hoechst 33342 (blue) and EdU (red) represent cell nuclei and nuclei of proliferative cells, respectively. The percentages of the EdU-positive cells are presented (right). Student’s t-tests were used for statistical analyses. Data are plotted as mean ± SD. *P < 0.05 vs. control; **P < 0.01 vs. control. d These four cells lines from (a) were treated with DMSO or 2 uM AZ304 for 6 h. Expression levels of phosphorylation ERK were analysed by Western blot. e BRAF mutant cell line RKO, and BRAF wild type cell line Caco-2 were treated with DMSO or 2 uM AZ304 for the indicated times. Expression levels of phosphorylation ERK were analysed by Western blot. […] Cell viability was determined by MTT assay
# [3] = 2 μM AZ304, 10 μg/ml Cetuximab or combination, 36 h
structure (smiles),measurement,setting,value
COc1ccc2c(Nc3cc(NC(=O)c4cccc(C(C)(C)C#N)c4)ccc3C)ncnc2c1 [AZ304],DNA replication (EdU-positive cells),[1],suppressed DNA replication in CRC cells at all concentrations
same,GI50,HCT116,2740 nM
same,GI50,HCT-15,11.5 µM
same,GI50,MC-F7/mdr+,7.63 µM
same,GI50,SK-BR-3,11.6 µM
same,GI50,RPMI-8226,5.37 µM
same,GI50,NCI-H1755,7.72 µM
same,GI50,U937,9.37 µM
same,GI50,CHL-1,8.27 µM
same,GI50,MDA-MB-468,8.83 µM
same,"BRAF, p-ERK, p-AKT and p-mTOR levels",[2]; [3],decreased
same,EGFR phosphorylation (p-EGFR),[2]; [3],increased
same,phosphorylated SRC and STAT3,[2]; [3],relatively reduced expression levels
same,"cleaved caspase-9, caspase-3 and PARP","[2]; 2 μM AZ304, 10 μg/ml Cetuximab or combination, 48 h",overtly increased levels
same,p-ERK levels,"[2]; 2 uM AZ304, 6 h",reduced p-ERK levels in all four CRC cell lines
